# Legend:
# [1] = Determination of ulcer index
# [2] = test system: carrageenin-induced oedema; test: Inhibition of carrageenin-induced oedema; format: in vivo; settings: 1.5 hours
# Method: (§1) Inhibition of Kaolin- and carrageenin-induced oedema
# (§2) The tests were carried out on groups each consisting of at least 10 animals. The percentage inhibition of oedema, in relation to the untreated controls, was determined for each of the animals, and the average values were calculated.
# [3] = Inhibition of carrageenin-induced oedema; format: in vivo; settings: in vivo; LD50/ED50; read-out: Therapeutical index LD50/ED50, carrageenin-oedema
# Method: as §1, §2
# [4] = test system: central nervious system; test: Narcosis potentiating effect; format: in vivo
# [5] = Acute toxicity tests; format: in vivo; settings: rat, in vivo, po; rats, Litchfield-Wildoxon method
# Method: The acute toxicity values of the compounds were determined on rats, after oral administration. The LD50 values were calculated according to the Litchfield-Wildoxon method.
# [6] = test system: serotonine-induced oedema; test: Tests performed on serotonine-induced oedema; format: in vivo
# Method: Tests performed on serotonine-induced oedema
# The tests were carried out on groups each consisting of 10 animals. The percentage inhibition of oedema, in relation to the untreated controls, was determined for each of the animals. The data listed in Table 3 are the averages of the inhibition values.
# [7] = Inhibition of kaolin-induced oedema; format: in vivo; settings: in vivo; LD50/ED50; read-out: Therapeutical index LD50/ED50, kaolin-oedema
# Method: as §1, §2
# [8] = test system: kaolin-induced oedema; test: Inhibition of kaolin-induced oedema; format: in vivo; settings: 2 hours
# Method: as §1, §2
# [9] = Analgesic effect by the hot-plate test; format: in vivo; settings: 50 mg./kg. p.o.
# [10] = test system: Cotton granuloma; test: Cotton granuloma test; format: in vivo
# [11] = Analgesic effect by the writhing test; format: in vivo; settings: 50 mg./kg. p.o.
# [12] = Toxicity tests performed with compound SC-118; format: in vivo; settings: rat, in vivo, CFY rats
# Method: (§3) In order to give a more detailed information, in the following there are given the results of the toxicity tests performed with compound SC-118. The tests were carried out on CFY rats, each weighing 150 to 200 g.
# [13] = test system: CFY rats; test: Toxicity tests performed with compound SC-118; format: in vivo
# Method: as §3
# [14] = test system: experimentally provoked fever; test: Antipyretic activity (experimentally provoked fever); format: in vivo; parameters: unit not given here
# From the text: Besides their antiphlogistic activities, some of the benzo(a)quinolizidine derivatives exert antipyretic effects as well. On the basis of the tests performed on experimentally provoked fever, the antipyretic activities of the compounds according to the invention surpass the effect of amidazophenum.
# [15] = 25 mg./kg. p.o., 1 hour after administration
# [16] = 25 mg./kg. p.o., 2 hours after administration
# [17] = 25 mg./kg. p.o., 3 hours after administration
smiles,measurement,setting,value
"CCOc1cc2c(cc1OCC)C1CC(=O)C(CCC#N)CN1CC2 (stereo not drawn) [SCT-3, 2-Oxo-3-(β-cyano-ethyl)-9,10-diethoxy-1,2,3,4,6,7-hexahydro-11bH-benzo(a)quinolizidine]",Erosion,[1]; female,4/10
same,Ulcer,[1]; female,0/10
same,Erosion,[1]; male,6/10
same,Ulcer,[1]; male,1/10
same,Inhibition of carrageenin-induced oedema 1.5 hours after administration,[2]; 25 mg./kg. p.o.,25.1%
same,Inhibition of carrageenin-induced oedema 1.5 hours after administration,[2]; 50 mg./kg. p.o.,41.5%
same,Inhibition of carrageenin-induced oedema 1.5 hours after administration,[2]; 100 mg./kg. p.o.,53.7%
same,selectivity ratio,[3],19.8
same,"Prolongation of the sleep period in relation to the untreated controls, %",[4]; 25 mg./kg. p.o.,131.7%
same,"Prolongation of the sleep period in relation to the untreated controls, %",[4]; 50 mg./kg. p.o.,240.2%
same,LD50,[5],780 mg/kg
same,Percentage inhibition 1 hour after administration (serotonine-induced oedema),[6]; 50 mg./kg. p.o.,36.2%
same,Percentage inhibition 1 hour after administration (serotonine-induced oedema),[6]; 100 mg./kg. p.o.,47.0%
same,selectivity ratio,[7],15
same,Inhibition of kaolin-induced oedema 2 hours after administration,[8]; 25 mg./kg. p.o.,17.3%
same,Inhibition of kaolin-induced oedema 2 hours after administration,[8]; 50 mg./kg. p.o.,19.4%
same,Inhibition of kaolin-induced oedema 2 hours after administration,[8]; 75 mg./kg. p.o.,48.9%
same,Inhibition of kaolin-induced oedema 2 hours after administration,[8]; 100 mg./kg. p.o.,45.9%
same,"Prolongation of the reaction time, % (2 hours after administration)",[9],33.9%
"CCCC(C)(COC(N)=O)COC(N)=O [Meprobamate, reference compound]","Prolongation of the sleep period in relation to the untreated controls, %",[4]; 20 mg./kg. p.o.,110.2%
"N#CCCC1CN2CCc3cc4c(cc3C2CC1=O)OCO4 (stereo not drawn) [SC-118, 2-Oxo-3-(β-cyano-ethyl)-9,10-methylenedioxy-1,2,3,4,6,7-hexahydro-11bH-benzo(a)quinolisidine]","Effect, % (cotton granuloma test)",[10]; 50 mg./kg.,26.4%
same,Erosion,[1]; female,0/10
same,Ulcer,[1]; female,0/10
same,Erosion,[1]; male,0/10
same,Ulcer,[1]; male,0/10
same,Inhibition of carrageenin-induced oedema 1.5 hours after administration,[2]; 25 mg./kg. p.o.,22.0%
same,Inhibition of carrageenin-induced oedema 1.5 hours after administration,[2]; 50 mg./kg. p.o.,30.6%
same,Inhibition of carrageenin-induced oedema 1.5 hours after administration,[2]; 75 mg./kg. p.o.,47.7%
same,Inhibition of carrageenin-induced oedema 1.5 hours after administration,[2]; 100 mg./kg. p.o.,52.7%
same,selectivity ratio,[3],22.6
same,"Activity, % (reduction of the number of writhings in relation to the controls)",[11],41.8%
same,LD50,"[12]; female, read-out: LD50, f",1400 mg/kg
same,LD50,"[12]; male, read-out: LD50, m",1420 mg/kg
same,Dead animals/treated animals,"[13]; 750 mg./kg., 24 hours, female",0/10
same,Dead animals/treated animals,"[13]; 750 mg./kg., 24 hours, male",0/10
same,Dead animals/treated animals,"[13]; 750 mg./kg., 48 hours, female",0/10
same,Dead animals/treated animals,"[13]; 750 mg./kg., 48 hours, male",0/10
same,Dead animals/treated animals,"[13]; 750 mg./kg., 72 hours, female",0/10
same,Dead animals/treated animals,"[13]; 750 mg./kg., 72 hours, male",0/10
same,Dead animals/treated animals,"[13]; 1000 mg./kg., 24 hours, female",2/10
same,Dead animals/treated animals,"[13]; 1000 mg./kg., 24 hours, male",1/10
same,Dead animals/treated animals,"[13]; 1000 mg./kg., 48 hours, female",2/10
same,Dead animals/treated animals,"[13]; 1000 mg./kg., 48 hours, male",2/10
same,Dead animals/treated animals,"[13]; 1000 mg./kg., 72 hours, female",2/10
same,Dead animals/treated animals,"[13]; 1000 mg./kg., 72 hours, male",2/10
same,Dead animals/treated animals,"[13]; 1250 mg./kg., 24 hours, female",3/10
same,Dead animals/treated animals,"[13]; 1250 mg./kg., 24 hours, male",2/10
same,Dead animals/treated animals,"[13]; 1250 mg./kg., 48 hours, female",3/10
same,Dead animals/treated animals,"[13]; 1250 mg./kg., 48 hours, male",3/10
same,Dead animals/treated animals,"[13]; 1250 mg./kg., 72 hours, female",3/10
same,Dead animals/treated animals,"[13]; 1250 mg./kg., 72 hours, male",3/10
same,Dead animals/treated animals,"[13]; 1500 mg./kg., 24 hours, female",6/10
same,Dead animals/treated animals,"[13]; 1500 mg./kg., 24 hours, male",5/10
same,Dead animals/treated animals,"[13]; 1500 mg./kg., 48 hours, female",6/10
same,Dead animals/treated animals,"[13]; 1500 mg./kg., 48 hours, male",5/10
same,Dead animals/treated animals,"[13]; 1500 mg./kg., 72 hours, female",6/10
same,Dead animals/treated animals,"[13]; 1500 mg./kg., 72 hours, male",5/10
same,Dead animals/treated animals,"[13]; 1750 mg./kg., 24 hours, female",6/10
same,Dead animals/treated animals,"[13]; 1750 mg./kg., 24 hours, male",6/10
same,Dead animals/treated animals,"[13]; 1750 mg./kg., 48 hours, female",8/10
same,Dead animals/treated animals,"[13]; 1750 mg./kg., 48 hours, male",8/10
same,Dead animals/treated animals,"[13]; 1750 mg./kg., 72 hours, female",8/10
same,Dead animals/treated animals,"[13]; 1750 mg./kg., 72 hours, male",8/10
same,Dead animals/treated animals,"[13]; 2000 mg./kg., 24 hours, female",10/10
same,Dead animals/treated animals,"[13]; 2000 mg./kg., 24 hours, male",10/10
same,Dead animals/treated animals,"[13]; 2000 mg./kg., 48 hours, female",10/10
same,Dead animals/treated animals,"[13]; 2000 mg./kg., 48 hours, male",10/10
same,Dead animals/treated animals,"[13]; 2000 mg./kg., 72 hours, female",10/10
same,Dead animals/treated animals,"[13]; 2000 mg./kg., 72 hours, male",10/10
same,"Prolongation of the sleep period in relation to the untreated controls, %",[4]; 25 mg./kg. p.o.,96.4%
same,"Prolongation of the sleep period in relation to the untreated controls, %",[4]; 50 mg./kg. p.o.,253.0%
same,LD50,[5],1410 mg/kg
same,Percentage inhibition 1 hour after administration (serotonine-induced oedema),[6]; 25 mg./kg. p.o.,28.5%
same,Percentage inhibition 1 hour after administration (serotonine-induced oedema),[6]; 50 mg./kg. p.o.,42.1%
same,Percentage inhibition 1 hour after administration (serotonine-induced oedema),[6]; 75 mg./kg. p.o.,48.7%
same,selectivity ratio,[7],29.2
same,Inhibition of kaolin-induced oedema 2 hours after administration,[8]; 25 mg./kg. p.o.,18.1%
same,Inhibition of kaolin-induced oedema 2 hours after administration,[8]; 50 mg./kg. p.o.,27.5%
same,Inhibition of kaolin-induced oedema 2 hours after administration,[8]; 75 mg./kg. p.o.,43.7%
same,Inhibition of kaolin-induced oedema 2 hours after administration,[8]; 100 mg./kg. p.o.,53.4%
same,"Prolongation of the reaction time, % (2 hours after administration)",[9],61.2%
same,Variation of body temperature,[14]; [15],-1.67
same,Variation of body temperature,[14]; [16],-1.81
same,Variation of body temperature,[14]; [17],-1.60
same,Variation of body temperature,"[14]; 50 mg./kg. p.o., 1 hour after administration",-2.75
same,Variation of body temperature,"[14]; 50 mg./kg. p.o., 2 hours after administration",-3.34
same,Variation of body temperature,"[14]; 50 mg./kg. p.o., 3 hours after administration",-4.03
"O=C(O)c1ccccc1O [Na-salicylate, reference compound]","Effect, % (cotton granuloma test)",[10]; 100 mg./kg.,25.5%
same,Erosion,[1]; female,3/10
same,Ulcer,[1]; female,2/10
same,Erosion,[1]; male,1/10
same,Ulcer,[1]; male,4/10
same,Inhibition of carrageenin-induced oedema 1.5 hours after administration,[2]; 100 mg./kg. p.o.,16.2%
same,Inhibition of kaolin-induced oedema 2 hours after administration,[8]; 100 mg./kg. p.o.,10.5%
Cc1c(N(C)C)c(=O)n(-c2ccccc2)n1C [Amidazophenum],Variation of body temperature,[14]; [15],-1.17
same,Variation of body temperature,[14]; [16],-0.94
same,Variation of body temperature,[14]; [17],-0.95
"CC(=O)Oc1ccccc1C(=O)O [Aspirin, reference compound]",LD50,[5],1700 mg/kg
"COC(=O)CCC1CN2CCc3cc(OC)c(OC)cc3C2CC1=O (stereo not drawn) [SCT-2, 2-Oxo-3-(β-methoxycarbonyl-ethyl)-9,10-dimethoxy-1,2,3,4,6,7-hexahydro-11bH-benzo(a)quinolizidine]",Inhibition of carrageenin-induced oedema 1.5 hours after administration,[2]; 50 mg./kg. p.o.,14.3%
same,Inhibition of carrageenin-induced oedema 1.5 hours after administration,[2]; 75 mg./kg. p.o.,2.8%
same,Inhibition of carrageenin-induced oedema 1.5 hours after administration,[2]; 100 mg./kg. p.o.,17.0%
same,"Prolongation of the sleep period in relation to the untreated controls, %",[4]; 50 mg./kg. p.o.,28.3%
same,Percentage inhibition 1 hour after administration (serotonine-induced oedema),[6]; 100 mg./kg. p.o.,16.0%
same,Inhibition of kaolin-induced oedema 2 hours after administration,[8]; 25 mg./kg. p.o.,5.8%
same,Inhibition of kaolin-induced oedema 2 hours after administration,[8]; 50 mg./kg. p.o.,21.4%
same,Inhibition of kaolin-induced oedema 2 hours after administration,[8]; 75 mg./kg. p.o.,24.7%
same,"Prolongation of the reaction time, % (2 hours after administration)",[9],26.4%
"COc1cc2c(cc1OC)C1CC(=O)C(CCC#N)CN1CC2 (stereo not drawn) [SCT-1, 2-Oxo-3-(β-cyano-ethyl)-9,10-dimethoxy-1,2,3,4,6,7-hexahydro-11bH-benzo(a)quinolizidine]",Erosion,[1]; female,4/10
same,Ulcer,[1]; female,2/10
same,Erosion,[1]; male,3/10
same,Ulcer,[1]; male,1/10
same,Inhibition of carrageenin-induced oedema 1.5 hours after administration,[2]; 50 mg./kg. p.o.,24.2%
same,Inhibition of carrageenin-induced oedema 1.5 hours after administration,[2]; 75 mg./kg. p.o.,25.7%
same,Inhibition of carrageenin-induced oedema 1.5 hours after administration,[2]; 100 mg./kg. p.o.,37.7%
same,selectivity ratio,[3],6.7
same,"Prolongation of the sleep period in relation to the untreated controls, %",[4]; 25 mg./kg. p.o.,132.8%
same,"Prolongation of the sleep period in relation to the untreated controls, %",[4]; 50 mg./kg. p.o.,207.6%
same,LD50,[5],620 mg/kg
same,Percentage inhibition 1 hour after administration (serotonine-induced oedema),[6]; 50 mg./kg. p.o.,22.4%
same,Percentage inhibition 1 hour after administration (serotonine-induced oedema),[6]; 100 mg./kg. p.o.,57.8%
same,selectivity ratio,[7],12.4
same,Inhibition of kaolin-induced oedema 2 hours after administration,[8]; 25 mg./kg. p.o.,20.5%
same,Inhibition of kaolin-induced oedema 2 hours after administration,[8]; 50 mg./kg. p.o.,21.4%
same,Inhibition of kaolin-induced oedema 2 hours after administration,[8]; 75 mg./kg. p.o.,24.8%
same,Inhibition of kaolin-induced oedema 2 hours after administration,[8]; 100 mg./kg. p.o.,47.8%

# Source: patent US4102886A, “Process for the preparation of benzo(a)quinolizidine derivatives” (priority 1974, dated 1978)
